The text below walks through data of patent publication EP2929883A1, “Pyrazole derivatives as dihydroorotate dehydrogenase (DHODH) inhibitors” (INSTITUT PASTEUR, priority 2014, dated 2015).

In the assay the test system is measles virus. The assay can be described thus: microbe, parasite or virus in culture. To be noted: Measles morbillivirus, 24 h.

Values after ≈ are worked out from the molar mass of the structure shown. A value given as a limit tells only on which side of the number the result lay.

As for `CCc1cnc(-n2nc(OC(C)C)c(Oc3cc(F)ccc3F)c2C)nc1` [example 19, 2-(4-(2,5-difluorophenoxy)-3-isopropoxy-5-methyl-1H-pyrazol-1-yl)-5-ethylpyrimidine], the MIC50 was 0.0005 to 0.05 µM (≈ 0.000187 to 0.0187 µg/mL).

In the case of `Cc1c(Oc2c(F)cccc2F)c(OC(C)C)nn1-c1ccccn1` [example 4, 2-(4-(2,6-difluorophenoxy)-3-isopropoxy-5-methyl-1H-pyrazol-1-yl)pyridine], the MIC50 was over 5 µM.

In the case of `CC(C)Oc1nn(-c2ccc(C3CC3)cn2)cc1Sc1ccccc1` [example 105, 5-cyclopropyl-2-(3-isopropoxy-4-(phenylthio)-1H-pyrazol-1-yl)pyridine], the MIC50 was 0.05 to 0.5 µM (≈ 0.0176 to 0.176 µg/mL).

Take `CCOc1nn(-c2ccccn2)c(C)c1Cc1ccccc1Cl` [example 162, 2-(4-(2-chlorobenzyl)-3-ethoxy-5-methyl-1H-pyrazol-1-yl)pyridine]: the MIC50 was over 5 µM.

For the compound `CCc1cnc(-n2nc(OC(C)C)c(Cc3ccc(F)cc3)c2C)nc1` [example 24, 5-ethyl-2-(4-(4-fluorobenzyl)-3-isopropoxy-5-methyl-1H-pyrazol-1-yl)pyrimidine], the MIC50 was 0.0005 to 0.05 µM (≈ 0.000177 to 0.0177 µg/mL).

With `CC(C)Oc1nn(-c2ncc(C3CC3)cc2F)cc1Oc1ccccc1F` [example 66, 5-cyclopropyl-3-fluoro-2-(4-(2-fluorophenoxy)-3-isopropoxy-1H-pyrazol-1-yl)pyridine], the MIC50 lay in the range of 0.0005 to 0.05 µM (≈ 0.000186 to 0.0186 µg/mL).

`CCc1cnc(-n2nc(OC(C)C)c(Oc3ccc(F)cc3)c2C)nc1` [example 76, 5-ethyl-2-(4-(4-fluorophenoxy)-3-isopropoxy-5-methyl-1H-pyrazol-1-yl)pyrimidine]: the MIC50 was in the range of 0.05 to 0.5 µM (≈ 0.0178 to 0.178 µg/mL).

As to `CCOc1nn(-c2ccc(C3CC3)cn2)c(C)c1-c1ccccc1` [example 161A, 5-cyclopropyl-2-(3-ethoxy-5-methyl-4-phenyl-1H-pyrazol-1-yl)pyridine], the MIC50 was 0.5 to 5 µM (≈ 0.16 to 1.6 µg/mL).

On to `CC(C)Oc1nn(-c2ccc(C3CC3)cn2)cc1[S+]([O-])c1ccccc1` (stereo not shown) [example 181, 5-cyclopropyl-2-(3-isopropoxy-4-(phenylsulfinyl)-1H-pyrazol-1-yl)pyridine], for which the MIC50 was 0.5 to 5 µM (≈ 0.184 to 1.84 µg/mL).

Compound `Cc1c(Oc2c(F)cccc2F)c(OC(C)C)nn1-c1ncc(F)cn1` [example 14, 2-(4-(2,6-difluorophenoxy)-3-isopropoxy-5-methyl-1H-pyrazol-1-yl)-5-fluoropyrimidine] came in with an MIC50 of 0.05 to 0.5 µM (≈ 0.0182 to 0.182 µg/mL).

Turning to `Cc1c(Oc2ccccc2F)c(OC(C)C)nn1-c1ccc(C2CC2)cn1` [example 69, 5-cyclopropyl-2-(4-(2-fluorophenoxy)-3-isopropoxy-5-methyl-1H-pyrazol-1-yl)pyridine], the MIC50 was in the range of 0.0005 to 0.05 µM (≈ 0.000184 to 0.0184 µg/mL).

`Cc1cc(Br)cnc1-n1nc(OC(C)C)c(Oc2c(F)cccc2F)c1C` [example 85, 5-bromo-2-(4-(2,6-difluorophenoxy)-3-isopropoxy-5-methyl-1H-pyrazol-1-yl)-3-methylpyridine]: the MIC50 lay in the range of 0.5 to 5 µM (≈ 0.219 to 2.19 µg/mL).

Regarding `Cc1c(Oc2ccccc2F)c(OC(C)C)nn1-c1ncc(C2CC2)cn1` [example 51, 5-cyclopropyl-2-(4-(2-fluorophenoxy)-3-isopropoxy-5-methyl-1H-pyrazol-1-yl)pyrimidine], the MIC50 is 0.0005 to 0.05 µM (≈ 0.000184 to 0.0184 µg/mL).

Regarding `CCOc1nn(-c2ncccc2F)c(C)c1Cc1ccccc1` [example 37, 2-(4-benzyl-3-ethoxy-5-methyl-1H-pyrazol-yl)-3-fluoropyridine], the MIC50 is over 5 µM.

In the case of `CCOc1cc(C(=O)c2ccc(Cl)cc2)n(-c2ccccn2)n1` [example 149, (4-chlorophenyl)(3-ethoxy-1-(pyridin-2-yl)-1H-pyrazol-5-yl)methanone], the MIC50 was over 5 µM.

With `CCc1cnc(-n2nc(OC(C)C)c(Cc3ccccc3F)c2C)nc1` [example 23, 5-ethyl-2-(4-(2-fluorobenzyl)-3-isopropoxy-5-methyl-1H-pyrazol-1-yl)pyrimidine], the MIC50 lay within 0.0005 to 0.05 µM (≈ 0.000177 to 0.0177 µg/mL).

In turn, `c1ccc(Oc2cn(-c3ccc(C4CC4)cn3)nc2C2CC2)cc1` [example 120, 5-cyclopropyl-2-(3-cyclopropyl-4-phenoxy-1H-pyrazol-1-yl)pyridine] gave an MIC50 of 0.05 to 0.5 µM (≈ 0.0159 to 0.159 µg/mL).

The compound `COc1nn(-c2ccc(C)cn2)c(C)c1Cc1ccccc1` [example 137, 2-(4-benzyl-3-methoxy-5-methyl-1H-pyrazol-1-yl)-5-methylpyridine] gave an MIC50 of 0.5 to 5 µM (≈ 0.147 to 1.47 µg/mL).

Compound `CCOc1nn(-c2ccccn2)c(C)c1-c1cccc(Cl)c1` [example 156, 2-(4-(3-chlorophenyl)-3-ethoxy-5-methyl-1H-pyrazol-1-yl)pyridine] registered an MIC50 of over 5 µM.

In the case of `CCOc1nn(-c2cc(C)ccn2)c(C)c1Cc1ccccc1` [example 32, 2-(4-benzyl-3-ethoxy-5-methyl-1H-pyrazol-1-yl)-4-methylpyridine], the MIC50 fell in the range of 0.5 to 5 µM (≈ 0.154 to 1.54 µg/mL).

On to `CCc1cnc(-n2nc(OC(C)C)c(Oc3ccccc3F)c2C)nc1` [example 50, 5-ethyl-2-(4-(2-fluorophenoxy)-3-isopropoxy-5-methyl-1H-pyrazol-1-yl)pyrimidine], for which the MIC50 fell in the range of 0.0005 to 0.05 µM (≈ 0.000178 to 0.0178 µg/mL).

`Cc1c(Oc2c(F)cccc2F)c(OC(C)C)nn1-c1ccc(Br)cn1` [example 59, 5-bromo-2-(4-(2,6-difluorophenoxy)-3-isopropoxy-5-methyl-1H-pyrazol-1-yl)pyridine] came in with an MIC50 of 0.05 to 0.5 µM (≈ 0.0212 to 0.212 µg/mL).

In the case of `CCOc1nn(-c2ccc(C(C)C)cn2)c(C)c1Cc1ccccc1` [example 170, 2-(4-benzyl-3-ethoxy-5-methyl-1H-pyrazol-1-yl)-5-isopropylpyridine], the MIC50 lay within 0.5 to 5 µM (≈ 0.168 to 1.68 µg/mL).

`Cc1c(Oc2cccc(F)c2)c(OC(C)C)nn1-c1ccc(C2CC2)cn1` [example 97, 5-cyclopropyl-2-(4-(3-fluorophenoxy)-3-isopropoxy-5-methyl-1H-pyrazol-1-yl)pyridine] came in with an MIC50 of 0.05 to 0.5 µM (≈ 0.0184 to 0.184 µg/mL).

The compound `CCOc1nn(-c2ncc(CC)c(C)n2)c(C)c1Cc1ccccc1` [example 175, 2-(4-benzyl-3-ethoxy-5-methyl-1H-pyrazol-1-yl)-5-ethyl-4-methylpyrimidine] yielded an MIC50 of 0.0005 to 0.05 µM (≈ 0.000168 to 0.0168 µg/mL).

Consider `Cc1c(Cc2ccccc2)c(OC(C)C)nn1-c1ncc(C2CC2)cn1` [example 21, 2-(4-benzyl-3-isopropoxy-5-methyl-1H-pyrazol-1-yl)-5-cyclopropylpyrimidine], for which the MIC50 was 0.0005 to 0.05 µM (≈ 0.000174 to 0.0174 µg/mL).

In the case of `CCOc1nn(-c2ccc(C3CC3)cn2)c(C)c1Oc1ccccc1Br` [example 55, 2-(4-(2-bromophenoxy)-3-ethoxy-5-methyl-1H-pyrazol-1-yl)-5-cyclopropylpyridine], the MIC50 lay within 0.0005 to 0.05 µM (≈ 0.000207 to 0.0207 µg/mL).

Take `Cc1nn(-c2ncc(C3CC3)cn2)c(OC(C)C)c1Cc1ccccc1` [example 22, 2-(4-benzyl-5-isopropoxy-3-methyl-1H-pyrazol-1-yl)-5-cyclopropylpyrimidine]: the MIC50 is 0.05 to 0.5 µM (≈ 0.0174 to 0.174 µg/mL).

`CCOc1nn(-c2ccc(C3CC3)cn2)c(C)c1Oc1ccccc1Cl` [example 63, 2-(4-(2-chlorophenoxy)-3-ethoxy-5-methyl-1H-pyrazol-1-yl)-5-cyclopropylpyridine]: the MIC50 fell in the range of 0.0005 to 0.05 µM (≈ 0.000185 to 0.0185 µg/mL).

As for `CCOc1nn(-c2ncc(CC)cn2)c(C)c1Oc1ccccc1Cl` [example 78, 2-(4-(2-chlorophenoxy)-3-ethoxy-5-methyl-1H-pyrazol-1-yl)-5-ethylpyrimidine], the MIC50 was in the range of 0.05 to 0.5 µM (≈ 0.0179 to 0.179 µg/mL).

With `Cc1c(Oc2c(F)cccc2F)c(OC(C)C)nn1-c1ncc(Br)cn1` [example 58, 5-bromo-2-(4-(2,6-difluorophenoxy)-3-isopropoxy-5-methyl-1H-pyrazol-1-yl)pyrimidine], the MIC50 lay within 0.0005 to 0.05 µM (≈ 0.000213 to 0.0213 µg/mL).

Consider `COc1cc(C2CC2)cnc1-n1cc(Oc2ccccc2)c(OC(C)C)n1` [example 184, 5-cyclopropyl-2-(3-isopropoxy-4-phenoxy-1H-pyrazol-1-yl)-3-methoxypyridine], for which the MIC50 lay in the range of 0.0005 to 0.05 µM (≈ 0.000183 to 0.0183 µg/mL).

`COc1cccc(Cc2cc(OC)nn2-c2ccccn2)c1` [example 148, 2-(3-methoxy-5-(3-methoxybenzyl)-1H-pyrazol-1-yl)pyridine] yielded an MIC50 of over 5 µM.

As to `CCOc1nn(-c2cccc(C)n2)c(C)c1Cc1ccccc1` [example 33, 2-(4-benzyl-3-ethoxy-5-methyl-1H-pyrazol-1-yl)-6-methylpyridine], the MIC50 was over 5 µM.

`CCOc1nn(-c2ccc(C)nc2)c(C)c1Cc1ccccc1` [example 124, 5-(4-benzyl-3-ethoxy-5-methyl-1H-pyrazol-1-yl)-2-methylpyridine] returned an MIC50 of 0.5 to 5 µM (≈ 0.154 to 1.54 µg/mL).

In turn, `CCOc1nn(-c2ncc(CC)cn2)c(C)c1C(=O)c1ccccc1` [example 150, (3-ethoxy-1-(5-ethylpyrimidin-2-yl)-5-methyl-1H-pyrazol-4-yl)(phenyl)methanone] yielded an MIC50 of 0.5 to 5 µM (≈ 0.168 to 1.68 µg/mL).

Compound `COc1cc(-c2ccc(Cl)cc2Cl)n(-c2ccccn2)n1` [example 144, 2-(5-(2,4-dichlorophenyl)-3-methoxy-1H-pyrazol-1-yl)pyridine] came in with an MIC50 of over 5 µM.

In turn, `Cc1c(Oc2cc(F)ccc2F)c(OC(C)C)nn1-c1ccc(C2CC2)cn1` [example 18, 5-cyclopropyl-2-(4-(2,5-difluorophenoxy)-3-isopropoxy-5-methyl-1H-pyrazol-1-yl)pyridine] had an MIC50 of 0.0005 to 0.05 µM (≈ 0.000193 to 0.0193 µg/mL).

`Cc1c(Oc2ccc(F)cc2)c(OC(C)C)nn1-c1ccc(C2CC2)cn1` [example 98, 5-cyclopropyl-2-(4-(4-fluorophenoxy)-3-isopropoxy-5-methyl-1H-pyrazol-1-yl)pyridine] showed an MIC50 of 0.5 to 5 µM (≈ 0.184 to 1.84 µg/mL).

Regarding `Cc1c(Oc2c(F)cccc2F)c(OC(C)C)nn1-c1ncc(C2CC2)cn1` [example 13, 5-cyclopropyl-2-(4-(2,6-difluorophenoxy)-3-isopropoxy-5-methyl-1H-pyrazol-1-yl)pyrimidine], the MIC50 was 0.0005 to 0.05 µM (≈ 0.000193 to 0.0193 µg/mL).

`CCc1cnc(-n2nc(OC(C)C)c(Cc3ccccc3OC)c2C)nc1` [example 101, 5-ethyl-2-(3-isopropoxy-4-(2-methoxybenzyl)-5-methyl-1H-pyrazol-1-yl)pyrimidine] yielded an MIC50 of 0.0005 to 0.05 µM (≈ 0.000183 to 0.0183 µg/mL).

Turning to `Cc1c(Oc2ccccc2F)c(OC(C)C)nn1-c1ncc(C2CC2)cc1F` [example 53, 5-cyclopropyl-3-fluoro-2-(4-(2-fluorophenoxy)-3-isopropoxy-5-methyl-1H-pyrazol-1-yl)pyridine], the MIC50 is 0.05 to 0.5 µM (≈ 0.0193 to 0.193 µg/mL).

For `Cc1c(Oc2c(F)cccc2F)c(OC(C)C)nn1-c1ccc(C2CC2)nn1` [example 7, 3-cyclopropyl-6-(4-(2,6-difluorophenoxy)-3-isopropoxy-5-methyl-1H-pyrazol-1-yl)pyridazine], the MIC50 fell in the range of 0.0005 to 0.05 µM (≈ 0.000193 to 0.0193 µg/mL).
